Measured values as given in patent publication US10975084B2, “KDM5 inhibitors” (Merck Sharp & Dohme Corp., priority 2016, dated 2021).

Target: KDM5B (Homo sapiens (Human), UniProt Q9UGL1)
Test: KDM5B TR-FRET Enzyme Activity Assay
Format: biochemical
Conditions: LANCE TR-FRET; 5 nM full-length recombinant KDM5B; ten point titration 100000 nM to 5.08 nM
Procedure, shortened: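 Full-length KDM5B from Sf21 cells (5 nM) was preincubated 30 min with compound in HEPES pH 7.3 buffer with ascorbate and 2 μM Fe(II). Reaction with 500 nM biotinylated H3K4Me3 peptide and 500 nM α-ketoglutarate ran 60 min. Product was detected by TR-FRET (Eu-anti-H3K4Me1-2/streptavidin-Dylight 650, 665/615 ratio); IC50 came from a 4-parameter fit.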

Chain of KDM5B (Q9UGL1 whole entry): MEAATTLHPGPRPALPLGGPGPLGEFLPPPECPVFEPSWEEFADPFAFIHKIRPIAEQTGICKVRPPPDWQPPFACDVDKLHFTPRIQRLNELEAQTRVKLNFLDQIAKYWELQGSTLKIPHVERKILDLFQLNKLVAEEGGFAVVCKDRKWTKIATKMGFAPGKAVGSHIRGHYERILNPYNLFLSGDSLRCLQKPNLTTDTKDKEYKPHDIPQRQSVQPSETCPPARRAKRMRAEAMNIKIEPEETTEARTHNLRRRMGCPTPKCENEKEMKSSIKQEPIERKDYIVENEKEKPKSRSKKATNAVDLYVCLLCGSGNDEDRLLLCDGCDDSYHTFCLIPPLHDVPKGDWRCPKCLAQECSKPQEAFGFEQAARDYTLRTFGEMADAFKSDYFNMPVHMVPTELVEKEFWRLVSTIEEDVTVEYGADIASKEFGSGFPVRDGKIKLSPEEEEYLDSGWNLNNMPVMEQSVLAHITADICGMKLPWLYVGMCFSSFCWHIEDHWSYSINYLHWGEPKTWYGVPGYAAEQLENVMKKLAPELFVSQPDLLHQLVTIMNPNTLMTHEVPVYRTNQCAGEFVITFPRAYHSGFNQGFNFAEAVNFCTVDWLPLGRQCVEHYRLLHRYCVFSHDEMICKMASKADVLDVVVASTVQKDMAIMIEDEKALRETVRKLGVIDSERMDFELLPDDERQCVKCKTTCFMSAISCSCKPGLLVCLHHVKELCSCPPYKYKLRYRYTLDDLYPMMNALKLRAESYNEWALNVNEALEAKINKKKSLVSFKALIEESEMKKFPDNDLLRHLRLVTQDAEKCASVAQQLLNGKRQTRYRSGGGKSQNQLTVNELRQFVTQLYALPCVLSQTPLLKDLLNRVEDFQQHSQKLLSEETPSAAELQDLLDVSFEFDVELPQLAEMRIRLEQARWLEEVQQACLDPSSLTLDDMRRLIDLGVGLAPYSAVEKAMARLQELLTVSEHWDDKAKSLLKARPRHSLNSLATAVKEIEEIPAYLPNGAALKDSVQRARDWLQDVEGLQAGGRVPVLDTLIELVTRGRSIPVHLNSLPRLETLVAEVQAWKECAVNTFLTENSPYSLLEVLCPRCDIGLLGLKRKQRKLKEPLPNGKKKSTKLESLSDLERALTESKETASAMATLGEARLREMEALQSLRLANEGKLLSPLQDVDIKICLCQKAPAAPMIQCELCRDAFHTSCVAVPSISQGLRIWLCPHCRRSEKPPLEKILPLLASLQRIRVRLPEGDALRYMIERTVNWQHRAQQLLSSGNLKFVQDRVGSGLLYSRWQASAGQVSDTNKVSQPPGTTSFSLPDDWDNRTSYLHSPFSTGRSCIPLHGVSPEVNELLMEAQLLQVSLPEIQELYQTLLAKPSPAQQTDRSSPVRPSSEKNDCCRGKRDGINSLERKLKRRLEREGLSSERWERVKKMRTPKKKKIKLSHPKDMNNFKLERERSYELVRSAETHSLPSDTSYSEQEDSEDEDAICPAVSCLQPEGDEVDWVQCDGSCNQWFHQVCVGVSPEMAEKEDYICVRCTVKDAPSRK

SMILES	IC50 [nM]
CC(C)c1c(-c2cccc(N3CCOCC3)c2)[nH]c2ncnn2c1=O [Example 11-44, 6-(1-methylethyl)-5-(3-morpholin-4-ylphenyl)[1,2,4]triazolo[1,5-a]pyrimidin-7(4H)-one]	46.3
CCOC(=O)Cc1ccc(-c2[nH]c3ncnn3c(=O)c2C(C)C)cc1 [Example 11-45, ethyl {4-[6-(1-methylethyl)-7-oxo-4,7-dihydro[1,2,4]triazolo[1,5-a]pyrimidin-5-yl]phenyl}acetate]	17.4
CC(C)c1c(-c2cccc(Oc3ccccc3)c2)[nH]c2ncnn2c1=O [Example 11-46, 6-(1-methylethyl)-5-(3-phenoxyphenyl)[1,2,4]triazolo[1,5-a]pyrimidin-7(4H)-one]	303
CC(C)c1c(-c2cnn(CCS(C)(=O)=O)c2)[nH]c2ncnn2c1=O [Example 11-47, 6-(1-methylethyl)-5-{1-[2-(methylsulfonyl)ethyl]-1H-pyrazol-4-yl}[1,2,4]triazolo[1,5-a]pyrimidin-7(4H)-one]	6.93
CC(C)c1c(-c2ccc(CN3CCCCC3)cc2)[nH]c2ncnn2c1=O [Example 11-48, 6-(1-methylethyl)-5-[4-(piperidin-1-ylmethyl)phenyl][1,2,4]triazolo[1,5-a]pyrimidin-7(4H)-one]	16.8
CC(C)c1c(-c2cccc(CN3CCCCC3)c2)[nH]c2ncnn2c1=O [Example 11-49, 6-(1-methylethyl)-5-[3-(piperidin-1-ylmethyl)phenyl][1,2,4]triazolo[1,5-a]pyrimidin-7(4H)-one]	33.2
CC(C)c1c(-c2ccc(C(O)C(F)(F)F)cc2)[nH]c2ncnn2c1=O (stereo not shown) [Example 11-50, 6-(1-methylethyl)-5-[4-(2,2,2-trifluoro-1-hydroxyethyl)-phenyl][1,2,4]triazolo[1,5-a]pyrimidin-7(4H)-one]	20.1
CC(C)c1c(-c2cnn(-c3cccc(Cl)c3)c2)[nH]c2ncnn2c1=O [Example 11-51, 5-[1-(3-chlorophenyl)-1H-pyrazol-4-yl]-6-(1-methylethyl)[1,2,4]triazolo[1,5-a]pyrimidin-7(4H)-one]	9.66
CC(C)c1c(-c2cnn(CCN3CCOCC3)c2)[nH]c2ncnn2c1=O [Example 11-52, 6-(1-methylethyl)-5-[1-(2-morpholin-4-ylethyl)-1H-pyrazol-4-yl][1,2,4]triazolo[1,5-a]pyrimidin-7(4H)-one]	6.96
CC(C)c1c(-c2cnn3c2CCCC3)[nH]c2ncnn2c1=O [Example 11-53, 6-(1-methylethyl)-5-(4,5,6,7-tetrahydropyrazolo[1,5-a]pyridin-3-yl)[1,2,4]triazolo[1,5-a]pyrimidin-7(4H)-one]	75.1
CC(C)c1c(-c2cccc(C(O)C(F)(F)F)c2)[nH]c2ncnn2c1=O (stereo not shown) [Example 11-54, 6-(1-methylethyl)-5-[3-(2,2,2-trifluoro-1-hydroxyethyl)phenyl][1,2,4]triazolo[1,5-a]pyrimidin-7(4H)-one]	31.4
CC(C)c1c(/C=C/c2ccccc2)[nH]c2ncnn2c1=O [Example 11-55, 6-(1-methylethyl)-5-[(E)-2-phenylethenyl][1,2,4]triazolo[1,5-a]pyrimidin-7(4H)-one]	9.45
CC(C)c1c(C2=CCC(C#N)CC2)[nH]c2ncnn2c1=O (stereo not shown) [Example 11-56]	110
COc1cccc(-c2[nH]c3ncnn3c(=O)c2C(C)C)c1 [Example 11-57, 5-(3-methoxyphenyl)-6-(1-methylethyl) [1,2,4]triazolo[1,5-a]pyrimidin-7(4H)-one]	55.4
COc1ccc(-c2[nH]c3ncnn3c(=O)c2C(C)C)cc1 [Example 11-58, 5-(4-methoxyphenyl)-6-(1-methylethyl) [1,2,4]triazolo[1,5-a]pyrimidin-7(4H)-one]	37.3
CC(C)c1c(-c2cccc(CO)c2)[nH]c2ncnn2c1=O [Example 11-59, 5-[3-(hydroxymethyl)phenyl]-6-(1-methylethyl)[1,2,4]triazolo[1,5-a]pyrimidin-7(4H)-one]	26.5
